Experiments:
Assay type in all cases: ADME
[1] = Half-life period in 95% ethanol in dark at 28 degrees celsius.
[2] = Half-life period in 95% ethanol in diffuse laboratory light at 28 degrees celsius.
[3] = Half-life period in phosphate buffer at pH 7.4 in the dark at 28 degrees celsius.
[4] = Half-life period in 95% ethanol in diffuse laboratory light at 28 degrees celsius

Question: With `NC(=O)c1ncn2c(=O)n(-c3ccccc3)nnc12` as the compound, how does the half-life [1] read?
Answer: The half-life was 23 min.

Question: What about the half-life [2] of the same compound?
Answer: The half-life was 9 min.

Question: For `NC(=O)c1ncn2c(=O)n(-c3cccc4ccccc34)nnc12`, which half-life [1] is on record?
Answer: The half-life was 4.6 min.

Question: For `N#Cc1cccc(-n2nnc3c(C(N)=O)ncn3c2=O)c1`, which half-life [1] is on record?
Answer: Its half-life is 2.6 min.

Question: Which results are given for `CCOc1ccc(-n2nnc3c(C(N)=O)ncn3c2=O)cc1`?
Answer: half-life [1]: 78 min; half-life [2]: 8 min

Question: With `Cc1ccc(-n2nnc3c(C(N)=O)ncn3c2=O)cc1` as the compound, how does the half-life [1] read?
Answer: The half-life was 40 min.

Question: And the half-life [2]?
Answer: The half-life was 7.5 min.

Question: Which half-life [1] does the source give for `COc1ccc(-n2nnc3c(C(N)=O)ncn3c2=O)cc1` here?
Answer: The half-life was 69 min.

Question: What about the half-life [2] of the same compound?
Answer: The half-life was 8.5 min.

Question: And the half-life [3]?
Answer: Its half-life is 155 min.

Question: Which results are given for `NC(=O)c1ncn2c(=O)n(-c3ccc(Cl)cc3)nnc12`?
Answer: half-life [1]: 6.3 min; half-life [2]: 8.2 min; half-life [3]: 2.9 min

Question: For `NC(=O)c1ncn2c(=O)n(-c3ccc([N+](=O)[O-])cc3)nnc12`, which half-life [1] is on record?
Answer: Its half-life is less than 1 min.

Question: For `CCCn1nnc2c(C(N)=O)ncn2c1=O`, which half-life [1] is on record?
Answer: Its half-life is 155 min.

Question: What about the half-life [2] of the same compound?
Answer: Its half-life is 155 min.

Question: With `Cn1nnc2c(C(N)=O)ncn2c1=O` [TEMOZOLOMIDE] as the compound, how does the half-life [1] read?
Answer: The half-life was 495 min.

Question: What about the half-life [4] of the same compound?
Answer: The half-life was 495 min.

— ChEMBL document CHEMBL1122784, “Antitumor imidazotetrazines. 1. Synthesis and chemistry of 8-carbamoyl-3-(2-chloroethyl)imidazo[5,1-d]-1,2,3,5-tetrazin-4(3 H)-one , a novel broad-spectrum antitumor agent” (J Med Chem, 1984)
